Laboratory results: publication PMC3319116 (Journal of Medicinal Chemistry, 2012)

Each compound was assayed against CB1 (Homo sapiens, UniProt P21554) (assay: CB1 Gαq16-coupled intracellular calcium mobilization assay in CHO-K1 cells). Settings: not given.
Type: cell-based

Chain of CB1 (P21554 whole entry): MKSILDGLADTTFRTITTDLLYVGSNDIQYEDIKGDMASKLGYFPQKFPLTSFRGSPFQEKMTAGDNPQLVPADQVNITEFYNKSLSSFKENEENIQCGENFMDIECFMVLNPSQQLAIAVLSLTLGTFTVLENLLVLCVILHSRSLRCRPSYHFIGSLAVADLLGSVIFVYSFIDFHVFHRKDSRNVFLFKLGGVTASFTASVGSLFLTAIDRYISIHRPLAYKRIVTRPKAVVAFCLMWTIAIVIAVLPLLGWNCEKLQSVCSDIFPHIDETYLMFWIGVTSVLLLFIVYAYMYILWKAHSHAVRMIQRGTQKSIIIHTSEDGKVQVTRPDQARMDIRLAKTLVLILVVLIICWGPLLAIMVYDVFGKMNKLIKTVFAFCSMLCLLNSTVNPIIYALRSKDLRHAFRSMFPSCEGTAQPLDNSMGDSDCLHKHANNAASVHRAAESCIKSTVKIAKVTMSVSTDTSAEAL

Row | Kb | SMILES
1 | 268 nM | Cc1c(C(=O)N[C@@H]2CCCN(C(=O)NC(C)(C)C)C2)nn(-c2ccc(Cl)cc2Cl)c1-c1ccc(Cl)cc1 [Compound 20i, (3R)-1-N-tert-Butyl-3-C-5-(4-chlorophenyl)-1-(2,4-dichlorophenyl)-4-methyl-1H-pyrazole-3-piperidine-1,3-diamido]
2 | 530 nM | CC(=O)N1CCC[C@@H](NC(=O)c2nn(-c3ccc(Cl)cc3Cl)c(-c3ccc(Cl)cc3)c2C)C1 [Compound 20c, N-[(3R)-1-Acetylpiperidin-3-yl]-5-(4-chlorophenyl)-1-(2,4-dichlorophenyl)-4-methyl-1H-pyrazole-3-carboxamide]
3 | 486 nM | CCCNC(=O)NCC1CCC(CNC(=O)c2nn(-c3ccc(Cl)cc3Cl)c(-c3ccc(Cl)cc3)c2C)CC1 (stereo not shown) [Compound 21c, 5-(4-Chlorophenyl)-1-(2,4-dichlorophenyl)-4-methyl-N-[(4-{[(propylcarbamoyl)amino]methyl}cyclohexyl)methyl]-1H-pyrazole-3-carboxamide]
4 | 171 nM | CCNC(=O)N1CCC[C@@H](NC(=O)c2nn(-c3ccc(Cl)cc3Cl)c(-c3ccc(Cl)cc3)c2C)C1 [Compound 20e, (3R)-3-C-5-(4-Chlorophenyl)-1-(2,4-dichlorophenyl)-4-methyl-1H-pyrazole-3-1-N-ethylpiperidine-1,3-diamido]
5 | 118 nM | CCCCNC(=O)N1CCC[C@@H](NC(=O)c2nn(-c3ccc(Cl)cc3Cl)c(-c3ccc(Cl)cc3)c2C)C1 [Compound 20h, (3R)-1-N-Butyl-3-C-5-(4-chlorophenyl)-1-(2,4-dichlorophenyl)-4-methyl-1H-pyrazole-3-piperidine-1,3-diamido]
6 | 150 nM | Cc1c(C(=O)NCC2CCC(CNC(=O)NC(C)(C)C)CC2)nn(-c2ccc(Cl)cc2Cl)c1-c1ccc(Cl)cc1 (stereo not shown) [Compound 21e, N-[(4-{[(tert-Butylcarbamoyl)amino]methyl}cyclohexyl)methyl]-5-(4-chlorophenyl)-1-(2,4-dichlorophenyl)-4-methyl-1H-pyrazole-3-carboxamide]
7 | 842 nM | Cc1c(C(=O)N[C@H]2CCCN(C(=O)OC(C)(C)C)C2)nn(-c2ccc(Cl)cc2Cl)c1-c1ccc(Cl)cc1 [Compound 19a, tert-Butyl-(3S)-3-[5-(4-chlorophenyl)-1-(2,4-dichlorophenyl)-4-methyl-1H-pyrazole-3-amido]piperidine-1-carboxylate]
8 | 135 nM | CCNC(=O)NCC1CCC(CNC(=O)c2nn(-c3ccc(Cl)cc3Cl)c(-c3ccc(Cl)cc3)c2C)CC1 (stereo not shown) [Compound 21a, 5-(4-Chlorophenyl)-1-(2,4-dichlorophenyl)-N-[(4-{[(ethylcarbamoyl)amino]methyl}cyclohexyl)methyl]-4-methyl-1H-pyrazole-3-carboxamide]
9 | 1170 nM | Cc1c(C(=O)N[C@@H]2CCCNC2)nn(-c2ccc(Cl)cc2Cl)c1-c1ccc(Cl)cc1 [Compound 20b, 5-(4-Chlorophenyl)-1-(2,4-dichlorophenyl)-4-methyl-N-[(3R)-piperidin-3-yl]-1H-pyrazole-3-carboxamide]
10 | 1880 nM | Cc1c(C(=O)N[C@H]2CCCNC2)nn(-c2ccc(Cl)cc2Cl)c1-c1ccc(Cl)cc1 [Compound 19b, 5-(4-Chlorophenyl)-1-(2,4-dichlorophenyl)-4-methyl-N-[(3S)-piperidin-3-yl]-1H-pyrazole-3-carboxamide]
11 | 230 nM | CCCCNC(=O)N1CCC[C@H](NC(=O)c2nn(-c3ccc(Cl)cc3Cl)c(-c3ccc(Cl)cc3)c2C)C1 [Compound 19h, (3S)-1-N-Butyl-3-C-5-(4-chlorophenyl)-1-(2,4-dichlorophenyl)-4-methyl-1H-pyrazole-3-piperidine-1,3-diamido]
12 | 351 nM | Cc1c(C(=O)NCC2CCC(CNC(=O)NC(C)C)CC2)nn(-c2ccc(Cl)cc2Cl)c1-c1ccc(Cl)cc1 (stereo not shown) [Compound 21b, 5-(4-Chlorophenyl)-1-(2,4-dichlorophenyl)-4-methyl-N-{[4-({[(propan-2-yl)carbamoyl]amino}methyl)cyclohexyl]methyl}-1H-pyrazole-3-carboxamide]
13 | 274 nM | CCCCNC(=O)NCC1CCC(CNC(=O)c2nn(-c3ccc(Cl)cc3Cl)c(-c3ccc(Cl)cc3)c2C)CC1 (stereo not shown) [Compound 21d, N-[(4-{[(Butylcarbamoyl)amino]methyl}cyclohexyl)methyl]-5-(4-chlorophenyl)-1-(2,4-dichlorophenyl)-4-methyl-1H-pyrazole-3-carboxamide]
14 | 265 nM | Cc1c(C(=O)N[C@H]2CCCN(C(=O)NC(C)C)C2)nn(-c2ccc(Cl)cc2Cl)c1-c1ccc(Cl)cc1 [Compound 19f, (3S)-3-C-5-(4-Chlorophenyl)-1-(2,4-dichlorophenyl)-4-methyl-1H-pyrazole-3-1-N-(propan-2-yl)piperidine-1,3-diamido]

The remaining lines, values behind:

Row | SMILES | Kb
15 | Cc1c(C(=O)N2CCC(NC(=O)Nc3ccc(N(C)C)cc3)(c3ccccc3)CC2)nn(-c2ccc(Cl)cc2Cl)c1-c1ccc(Cl)cc1 [Compound 17e, 3-(1-{[5-(4-Chlorophenyl)-1-(2,4-dichlorophenyl)-4-methyl-1H-pyrazol-3-yl]carbonyl}-4-phenylpiperidin-4-yl)-1-[4-(dimethylamino)phenyl]urea] | 264 nM
16 | Cc1c(C(=O)N2CCC(C(=O)O)(c3ccccc3)CC2)nn(-c2ccc(Cl)cc2Cl)c1-c1ccc(Cl)cc1 [Compound 10, 1-{[5-(4-Chlorophenyl)-1-(2,4-dichlorophenyl)-4-methyl-1H-pyrazol-3-yl]carbonyl}-4-phenylpiperidine-4-carboxylic acid] | 1170 nM
17 | Cc1c(C(=O)NC2CCN(S(N)(=O)=O)CC2)nn(-c2ccc(Cl)cc2Cl)c1-c1ccc(Cl)cc1 [Compound 18e, 5-(4-Chlorophenyl)-1-(2,4-dichlorophenyl)-4-methyl-N-(1-sulfamoylpiperidin-4-yl)-1H-pyrazole-3-carboxamide] | 592 nM
18 | CCOC(=O)N1CCC(NC(=O)c2nn(-c3ccc(Cl)cc3Cl)c(-c3ccc(Cl)cc3)c2C)CC1 [Compound 18l, Ethyl-4-[5-(4-chlorophenyl)-1-(2,4-dichlorophenyl)-4-methyl-1H-pyrazole-3-amido]piperidine-1-carboxylate] | 3 nM
19 | Cc1c(C(=O)NC2CCN(S(C)(=O)=O)CC2)nn(-c2ccc(Cl)cc2Cl)c1-c1ccc(Cl)cc1 [Compound 18d, 5-(4-Chlorophenyl)-1-(2,4-dichlorophenyl)-N-(1-methanesulfonylpiperidin-4-yl)-4-methyl-1H-pyrazole-3-carboxamide] | 269 nM
20 | CC(=O)N1CCC(NC(=O)c2nn(-c3ccc(Cl)cc3Cl)c(-c3ccc(Cl)cc3)c2C)CC1 [Compound 18c, N-(1-Acetylpiperidin-4-yl)-5-(4-chlorophenyl)-1-(2,4-dichlorophenyl)-4-methyl-1H-pyrazole-3-carboxamide] | 195 nM
21 | Cc1c(C(=O)NC2CCNCC2)nn(-c2ccc(Cl)cc2Cl)c1-c1ccc(Cl)cc1 [Compound 18b, 5-(4-Chlorophenyl)-1-(2,4-dichlorophenyl)-4-methyl-N-(piperidin-4-yl)-1H-pyrazole-3-carboxamide] | 5110 nM

Same assay, conditions: apparent dissociation affinity constant; rightward shift of CP55940 curve

Row | Ke (nM) CB1 | SMILES
22 | 2.09 nM | Cc1c(C(=O)N2CCC(NC(=O)NCc3ccccc3)(c3ccccc3)CC2)nn(-c2ccc(Cl)cc2Cl)c1-c1ccc(Cl)cc1 [Compound 17b, 1-Benzyl-3-(1-{[5-(4-chlorophenyl)-1-(2,4-dichlorophenyl)-4-methyl-1H-pyrazol-3-yl]carbonyl}-4-phenylpiperidin-4-yl)urea]
